The record followed here is patent publication US6897217B2, “2-Alkynyl-and 2-alkenyl-pyrazolo-[4,3-e]-1,2,4-triazolo-[1,5-c]-pyrimidine adenosine A2a receptor antagonists” (Schering Corporation, priority 2003, dated 2005).

This test concerns the target T1, Human A2a Adenosine Receptor (Homo sapiens, UniProt P29274).
T1 construct: purchased Receptor Biology, Inc., Beltsville, Md; RB-HA2a
The test can be described thus: Human adenosine A2a receptor competition binding assay. The settings on record: [3H]-SCH 58261 displacement, human A2a membranes. Here is the method:
Human Adenosine A2a and A1 Receptor Competition Binding Assay Protocol
• A2a: Human A2a Adenosine Receptor membranes, Catalog #RB-HA2a, Receptor Biology, Inc., Beltsville, Md. Dilute to 17 μg/100 μl in membrane dilution buffer (see below). Assay Buffers • Membrane dilution buffer: Dulbecco's Phosphate Buffered Saline (Gibco/BRL)+10 mM MgCl2. • Compound Dilution Buffer: Dulbecco's Phosphate Buffered Saline (Gibco/BRL)+10 mM MgCl2 supplemented with 1.6 mg/ml methyl cellulose and 16% DMSO. Prepared fresh daily. Ligands • A2a: [3H]-SCH 58261, custom synthesis, AmershamPharmacia Biotech, Piscataway, N.J. Stock is prepared at 1 nM in membrane dilution buffer. Final assay concentration is 0.5 nM. • A1: [3H]-DPCPX, AmershamPharmacia Biotech, Piscataway, N.J. Stock is prepared at 2 nM in membrane dilution buffer. Final assay concentration is 1 nM. Non-specific Binding • A2a: To determine non-specific binding, add 100 nM CGS 15923 (RBI, Natick, Mass.). Working stock is prepared at 400 nM in compound dilution buffer. • A1: To determine non-specific binding, add 100 μM NECA (RBI, Natick, Mass.). Working stock is prepared at 400 μM in compound dilution buffer. Compound Dilution • Prepare 1 mM stock solutions of compounds in 100% DMSO. Dilute in compound dilution buffer. Test at 10 concentrations ranging from […] to 30 μM. Prepare working solutions at 4× final concentration in compound dilution buffer. […]

SMILES strings stand for the structures.

T1 sequence (P29274 whole entry): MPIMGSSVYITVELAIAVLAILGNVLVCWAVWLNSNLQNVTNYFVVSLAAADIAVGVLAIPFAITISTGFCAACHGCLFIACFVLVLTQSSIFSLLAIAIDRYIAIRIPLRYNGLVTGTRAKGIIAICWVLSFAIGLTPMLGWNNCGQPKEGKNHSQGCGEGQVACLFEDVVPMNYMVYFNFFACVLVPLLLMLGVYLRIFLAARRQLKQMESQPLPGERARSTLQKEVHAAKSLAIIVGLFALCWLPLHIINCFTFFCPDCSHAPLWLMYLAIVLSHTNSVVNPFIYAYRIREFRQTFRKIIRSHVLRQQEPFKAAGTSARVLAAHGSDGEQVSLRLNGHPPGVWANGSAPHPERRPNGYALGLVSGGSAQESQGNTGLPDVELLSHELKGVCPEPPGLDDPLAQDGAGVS

Regarding `CC#Cc1nc2c3cnn(CCN4CCN(c5ccc(F)cc5F)CC4)c3nc(N)n2n1` [Example 1-17], the affinity corresponds to a Ki of 2.2 nM.

Turning to `CC#Cc1nc2c3cnn(CCN4CCN(c5ccc(OCCOC)cc5F)CC4)c3nc(N)n2n1` [Example 5-4], the Ki (as a rule, the dissociation constant of the complex between target and ligand, obtained from inhibition or displacement) turned out to be 2.3 nM.
